# Assay results reported in patent US4393050A, “Analogs of extended N-terminal somatostatin” (The Salk Institute for Biological Studies, priority 1981, dated 1983).
# Read-outs that look alike come from different tables or passages of the source. Residues, ends and D or L forms follow the SMILES beside them.
# What was measured:
# [1] = test system: cells of rat pituitary glands; format: cell-based
# Experimental: To determine the effectiveness of the peptides to inhibit the release of growth hormone, in vitro radioimmunoassays are carried out using the SS-28 analogs in side-by-side comparison with equimolar concentrations of somotostatin-14 having a known effectiveness to inhibit the release of growth hormone induced by the application of isobutyl methyl xanthine to pituitary cells. Cultures are used which include cells of rat pituitary glands removed some four to five days previously in a system that minimizes enzymatic degradation, generally following the procedure set forth in Vale et al., Methods in Enzymology, Hormones and Cyclic Nucleotides (1975) Vol. 37, p. 82. Both cultures of a defined standard medium and cultures which are considered optimal for the secretion of growth hormone, as a result of having additions of either 2% or 10% of serum from a foetal calf, are used for the comparative testing.
# insulin secretion = format: in vivo, rats
# Experimental: (§1) In vivo experiments are carried out with the SS-28 analogs, using the procedure described in Brown et al., Metabolism (1976) Vol. 25, pp. 1501-1503, to determine the potency, relative to somatostatin-14 to inhibit the secretion of glucagon and insulin stimulated by the administration of arginine to groups of six rats.
# glucagon secretion = format: in vivo, rats
# Experimental: as §1
# [2] = juvenile-type diabetics, complete absence of circulating insulin; cited from earlier work
# [3] = rats, arginine-stimulated secretion, SS-14 = 1
smiles,measurement,setting,value
"CC(C)C[C@H](NC(=O)[C@H](C)NC(=O)[C@@H]1CCCN1C(=O)[C@H](CC(N)=O)NC(=O)[C@H](CO)NC(=O)[C@H](CC(N)=O)NC(=O)[C@H](C)NC(=O)[C@@H](N)CO)C(=O)N[C@@H](C)C(=O)N1CCC[C@H]1C(=O)N[C@@H](CCCNC(=N)N)C(=O)N[C@@H](CCC(=O)O)C(=O)N[C@@H](CCCNC(=N)N)C(=O)N[C@@H](CCCCN)C(=O)N[C@@H](C)C(=O)NCC(=O)N[C@H]1CSSC[C@@H](C(=O)O)NC(=O)[C@H](CO)NC(=O)[C@H]([C@@H](C)O)NC(=O)[C@H](Cc2ccc(O)cc2)NC(=O)[C@H]([C@@H](C)O)NC(=O)[C@H](CCCCN)NC(=O)[C@@H](Cc2c[nH]c3ccccc23)NC(=O)[C@H](Cc2ccccc2)NC(=O)[C@H](Cc2ccccc2)NC(=O)[C@H](CC(N)=O)NC(=O)[C@H](CCCCN)NC1=O [Peptide 1, [Leu^8, D-Trp^22, Tyr^25]--SS-28] (HELM PEPTIDE1{S.A.N.S.N.P.A.L.A.P.R.E.R.K.A.G.C.K.N.F.F.[dW].K.T.Y.T.S.C}$PEPTIDE1,PEPTIDE1,17:R3-28:R3$$$V2.0)","In Vitro Growth Hormone (potency to inhibit release, relative to SS-14)",[1],4.84
"CSCC[C@H](NC(=O)[C@H](C)NC(=O)[C@@H]1CCCN1C(=O)[C@H](CC(N)=O)NC(=O)[C@H](CO)NC(=O)[C@H](CC(N)=O)NC(=O)[C@H](C)NC(=O)[C@@H](N)CO)C(=O)N[C@@H](C)C(=O)N1CCC[C@H]1C(=O)N[C@@H](CCCNC(=N)N)C(=O)N[C@@H](CCC(=O)O)C(=O)N[C@@H](CCCNC(=N)N)C(=O)N[C@@H](CCCCN)C(=O)N[C@@H](C)C(=O)NCC(=O)N[C@H]1CSSC[C@@H](C(=O)O)NC(=O)[C@@H](CO)NC(=O)[C@H]([C@@H](C)O)NC(=O)[C@H](Cc2ccccc2)NC(=O)[C@H]([C@@H](C)O)NC(=O)[C@H](CCCCN)NC(=O)[C@@H](Cc2c[nH]c3ccccc23)NC(=O)[C@H](Cc2ccccc2)NC(=O)[C@H](Cc2ccccc2)NC(=O)[C@H](CCCCN)NC1=O [Peptide 3, desAsn^19 [D-Trp^22, D-Ser^27]--SS-28] (HELM PEPTIDE1{S.A.N.S.N.P.A.M.A.P.R.E.R.K.A.G.C.K.F.F.[dW].K.T.F.T.[dS].C}$PEPTIDE1,PEPTIDE1,17:R3-27:R3$$$V2.0)","In Vitro Growth Hormone (potency to inhibit release, relative to SS-14)",[1],0.1
same,"In Vivo Insulin (potency to inhibit secretion, relative to SS-14)","insulin secretion; rat, in vivo",145
same,"In Vivo Glugacon (potency to inhibit secretion, relative to SS-14)","glucagon secretion; rat, in vivo",1
"CSCC[C@H](NC(=O)[C@H](C)NC(=O)[C@@H]1CCCN1C(=O)[C@H](CC(N)=O)NC(=O)[C@H](CO)NC(=O)[C@H](CC(N)=O)NC(=O)[C@H](C)NC(=O)[C@@H](N)CO)C(=O)N[C@@H](C)C(=O)N1CCC[C@H]1C(=O)N[C@@H](CCCNC(=N)N)C(=O)N[C@@H](CCC(=O)O)C(=O)N[C@@H](CCCNC(=N)N)C(=O)N[C@@H](CCCCN)C(=O)N[C@@H](C)C(=O)NCC(=O)N[C@H]1CSSC[C@H](C(=O)O)NC(=O)[C@H](CO)NC(=O)[C@H](Cc2ccccc2)NC(=O)[C@H]([C@@H](C)O)NC(=O)[C@H](CCCCN)NC(=O)[C@@H](Cc2c[nH]c3ccccc23)NC(=O)[C@H](Cc2ccccc2)NC(=O)[C@H](Cc2ccccc2)NC1=O [Peptide 4, desAA^18,19,26 [D-Trp^22,D-Cys^28]--SS-28] (HELM PEPTIDE1{S.A.N.S.N.P.A.M.A.P.R.E.R.K.A.G.C.F.F.[dW].K.T.F.S.[dC]}$PEPTIDE1,PEPTIDE1,17:R3-25:R3$$$V2.0)","In Vitro Growth Hormone (potency to inhibit release, relative to SS-14)",[1],1.51
same,"In Vivo Insulin (potency to inhibit secretion, relative to SS-14)","insulin secretion; rat, in vivo",18
same,"In Vivo Glugacon (potency to inhibit secretion, relative to SS-14)","glucagon secretion; rat, in vivo",14
"C[C@H](N)C(=O)NCC(=O)N[C@H]1CSSC[C@@H](C(=O)O)NC(=O)[C@H](CO)NC(=O)[C@H]([C@@H](C)O)NC(=O)[C@H](Cc2ccccc2)NC(=O)[C@H]([C@@H](C)O)NC(=O)[C@H](CCCCN)NC(=O)[C@H](Cc2c[nH]c3ccccc23)NC(=O)[C@H](Cc2ccccc2)NC(=O)[C@H](Cc2ccccc2)NC(=O)[C@H](CC(N)=O)NC(=O)[C@H](CCCCN)NC1=O [SS-14, somatostatin]","In Vitro Growth Hormone (potency to inhibit release, relative to SS-14)","[1]; rat pituitary cell cultures, isobutyl methyl xanthine-induced GH release, SS-14 = 1",1
same,"In Vivo Insulin (potency to inhibit secretion, relative to SS-14)",insulin secretion; [3],1
same,"In Vivo Glugacon (potency to inhibit secretion, relative to SS-14)",glucagon secretion; [3],1
same,diminution of fasting hyperglycemia,[2],≤ 50%
